O=C(O)CCCCCC(=O)O
Settings	solubility (mole fraction)
in THF, 298.95 K	0.191
in THF, 300.55 K	0.198
in THF, 302.15 K	0.204
in THF, 303.65 K	0.211
in THF, 305.15 K	0.218
in THF, 307.95 K	0.231
in THF, 309.05 K	0.235
in THF, 311.75 K	0.25
in THF, 313.75 K	0.259
in THF, 315.75 K	0.271
in THF, 317.75 K	0.282
in THF, 320.25 K	0.296
in THF, 321.65 K	0.306
in THF, 323.05 K	0.316
in diethyl ether, 278.95 K	0.0091
in diethyl ether, 281.95 K	0.0102
in diethyl ether, 284.65 K	0.0112
in diethyl ether, 287.05 K	0.0122
in diethyl ether, 290.05 K	0.0137
in diethyl ether, 292.95 K	0.0152
in diethyl ether, 294.75 K	0.0165
in diethyl ether, 296.35 K	0.018
in diethyl ether, 299.15 K	0.0199
in diethyl ether, 301.55 K	0.0222
in ethanol, 298.45 K	0.121
in ethanol, 301.45 K	0.131
in ethanol, 304.25 K	0.144
in ethanol, 305.75 K	0.151
in ethanol, 307.55 K	0.158
in ethanol, 310.25 K	0.172
in ethanol, 312.15 K	0.187
in ethanol, 314.85 K	0.202
in ethanol, 316.25 K	0.206
in ethanol, 317.95 K	0.219
in ethanol, 320.95 K	0.235
in ethanol, 323.55 K	0.248
in ethanol, 325.65 K	0.267
in ethanol, 327.55 K	0.281
in ethanol, 329.25 K	0.294
in methanol, 300.75 K	0.142
in methanol, 302.65 K	0.152
in methanol, 304.15 K	0.159
in methanol, 305.95 K	0.171
in methanol, 307.65 K	0.18
in methanol, 310.05 K	0.187
in methanol, 312.65 K	0.205
in methanol, 314.85 K	0.218
in methanol, 317.85 K	0.246
in methanol, 321.35 K	0.27
in methanol, 323.75 K	0.293
in methanol, 325.55 K	0.309
in methanol, 327.15 K	0.324
in methanol, 328.75 K	0.342

From BigSolDB 2.1
